Assay results taken from the NIST ThermoML archive (doi:10.1016/j.fluid.2015.08.008).
Numbers after ± are expanded uncertainties.

Assays:
[1] = Boiling temperature at pressure P; settings: Liquid, distillation unit - dew point temperature
[2] = 101.33 kPa, Liquid, Vibrating tube method

C1CCC2=NCCCN2CC1 [1,8-diaza-7-bicyclo[5.4.0]undecene]
[1]
Settings | Boiling temperature at pressure P [°C]
0.51 kPa | 102.62 ± 25
0.71 kPa | 110.30 ± 20
1.01 kPa | 116.2 ± 16
1.31 kPa | 122.00 ± 14
1.51 kPa | 124.60 ± 19
1.71 kPa | 127.70 ± 14
2.01 kPa | 130.80 ± 13
2.31 kPa | 133.90 ± 12
2.51 kPa | 136 ± 11
3.01 kPa | 139.72 ± 9.8
3.31 kPa | 143.00 ± 9.2
3.51 kPa | 143.80 ± 8.8
4.01 kPa | 147.87 ± 8.2
4.21 kPa | 149.07 ± 6.8
4.51 kPa | 150.98 ± 6.4
5.01 kPa | 153.77 ± 5.8
5.31 kPa | 154.70 ± 5.8
6.31 kPa | 159.30 ± 5.7
7.31 kPa | 164.1 ± 5.9

C1CN=C2CCCN2C1 [1,5-diazabicyclo[4.3.0]non-5-ene]
Settings | Boiling temperature at pressure P [°C] | mass density [kg/m3]
[1], 0.71 kPa | 85.69 ± 20 | –
[1], 0.91 kPa | 90.86 ± 18 | –
[1], 0.92 kPa | 91.46 ± 17 | –
[1], 1.39 kPa | 98.20 ± 13 | –
[1], 1.41 kPa | 98.90 ± 12 | –
[1], 1.87 kPa | 105.99 ± 14 | –
[1], 2.81 kPa | 114.1 ± 8.1 | –
[1], 2.86 kPa | 114.66 ± 8.1 | –
[1], 3.37 kPa | 117.81 ± 7.5 | –
[1], 3.88 kPa | 120.18 ± 6.4 | –
[1], 5.11 kPa | 127.00 ± 6.2 | –
[1], 5.53 kPa | 128.91 ± 5.3 | –
[1], 6.11 kPa | 131.70 ± 4.6 | –
[1], 7.15 kPa | 134.78 ± 4.5 | –
[1], 8.11 kPa | 139.00 ± 4.2 | –
[1], 9.4 kPa | 142.40 ± 3.5 | –
[1], 10.12 kPa | 144.50 ± 3.5 | –
[1], 12.14 kPa | 149.60 ± 3.6 | –
[2], 293.15 K | – | 1037.59 ± 0.065
[2], 298.15 K | – | 1033.58 ± 0.063
[2], 303.15 K | – | 1029.56 ± 0.061
[2], 308.15 K | – | 1025.52 ± 0.06
[2], 313.15 K | – | 1021.49 ± 0.058
[2], 318.15 K | – | 1017.4 ± 0.056
[2], 323.15 K | – | 1013.33 ± 0.054
